US6541508B2, “Taxane prodrugs” (Nobex Corporation, priority 1999, dated 2003)
Like-named read-outs stand apart in the source and are kept apart here.

Columns and labels:
[1] = tested on: A121 ovarian carcinoma cell line; experiment: Cell growth inhibition, sulforhodamine B (SRB) assay, A121; format: cell-based, human; conditions: 72-96 h, read-out: IC50 nM (±S.E.) A121
Method: (§1) Cell lines were propagated as monolayers in RPMI-1640 containing 5% FCS, 5% NuSerum IV, 20 mM HEPES, 2 mM L-glutamine at 37° C. in a 5% CO2 humidified atmosphere.
(§2) Paclitaxel was solubilized in 100% DMSO. TX-001 and 002 were solubilized in sterile H2O acidified with 10% 1 N HCl. For the first experiment, 4.0 mM stocks of TX-001 and 002 were prepared. Solutions of TX-001 and TX-002 contained clear needle-like and cast-like precipitates and were fairly viscous (Experiment 1). For the second experiment (Experiment 2), less concentrated stock solutions (0.4 mM) of each compound were prepared in sterile H2O acidified with 10% 1 N HCl. The same type of precipitates were noted, however neither solution was viscous. All compounds were further diluted in RPMI-1640 containing 10 mM HEPES.
(§3) Assessment of cell growth inhibition was determined in 96 well microtiter plates according to the method of Skehan et al., “New Colorimetric Cytotoxicity Assay for Anticancer-Drug Screening, Articles 82(13):1107-1112 (1990). Briefly, cells were plated with 400-1800 cells/well in 96 well plates and incubated at 37° C. 15-18 hr prior to drug addition to allow for cell attachment. Each cell line was exposed to 12 concentrations of compound (a 6 log range), 5 replicate data points per compound concentration. […] Assays were terminated with 100 μl of ice-cold 50% TCA. […] Optical density was measured at 570 nm. […]

[2] = tested on: HT-1080 fibrosarcoma cell line; experiment: Cell growth inhibition, SRB assay, HT-1080; format: cell-based, human; conditions: 72-96 h, read-out: IC50 nM (±S.E.) HT-1080
Method: as §1, §2, §3

[3] = tested on: MDA435/LCC6-WT breast carcinoma cell line; experiment: Cell growth inhibition, SRB assay, LCC6-WT; format: cell-based, human; conditions: read-out: IC50 nM (±S.E.) LCC6-WT
Method: as §1, §2
Assessment of cell growth inhibition was determined in 96 well microtiter plates according to the method of Skehan et al., “New Colorimetric Cytotoxicity Assay for Anticancer-Drug Screening, Articles 82(13):1107-1112 (1990). Briefly, cells were plated with 400-1800 cells/well in 96 well plates and incubated at 37° C. 15-18 hr prior to drug addition to allow for cell attachment. Each cell line was exposed to 12 concentrations of compound (a 6 log range), 5 replicate data points per compound concentration. […] Assays were terminated with 100 μl of ice-cold 50% TCA. After 1 hr at 4° C., plates were washed 5 times with tap water to remove TCA, low-molecular-weight metabolites and serum proteins. 50 μl of 0.4% sulforhodamine B (SRB) was added to each well. Following a five minute incubation at room temperature, plates were rinsed 5 times with 0.1% acetic acid and air dried. Bound dye was solubilized with 10 mM Tris Base (pH 10.5) for 5 min on a gyratory shaker. Optical density was measured at 570 nm. […]

[4] = tested on: HT-1080/DR4 doxorubicin selected MDR (MRP/LRP phenotype) fibrosarcoma cell line; experiment: Cell growth inhibition, SRB assay, HT-1080-DR4; format: cell-based, human; conditions: for IC50: 72-96 h, read-out: IC50 nM (±S.E.) HT-1080-DR4; for Resistance ratio (IC50 resistant cell line/IC50 parental line): MRP/LRP expressing HT1080/DR4 vs HT-1080
Method: as §1, §2
Assessment of cell growth inhibition was determined in 96 well microtiter plates according to the method of Skehan et al., “New Colorimetric Cytotoxicity Assay for Anticancer-Drug Screening, Articles 82(13):1107-1112 (1990). Briefly, cells were plated with 400-1800 cells/well in 96 well plates and incubated at 37° C. 15-18 hr prior to drug addition to allow for cell attachment. Each cell line was exposed to 12 concentrations of compound (a 6 log range), 5 replicate data points per compound concentration. […] Assays were terminated with 100 μl of ice-cold 50% TCA. After 1 hr at 4° C., plates were washed 5 times with tap water to remove TCA, low-molecular-weight metabolites and serum proteins. 50 μl of 0.4% sulforhodamine B (SRB) was added to each well. Following a five minute incubation at room temperature, plates were rinsed 5 times with 0.1% acetic acid and air dried. Bound dye was solubilized with 10 mM Tris Base (pH 10.5) for 5 min on a gyratory shaker. Optical density was measured at 570 nm.
Data were fit with the Sigmoid-Emax concentration-effect model (N. H. G. Holford and L. B. Scheiner, “Understanding the dose-effect relationship: Clinical applications of pharmacokinetic-pharmacodynamic models,” Clin. Pharmacokin. 6:429-453 (1981)) with nonlinear regression, weighted by the reciprocal of the square of the predicted response.

[5] = Stability of trifluoroacetate product fraction solutions on storage; format: physicochemical; conditions: preparative HPLC fraction solutions, initially 98.8% average purity; 8° C. for 16 days; analytical HPLC
[6] = tested on: LCC6-MDR1 Pgp transfected breast carcinoma cell line; experiment: Cell growth inhibition, SRB assay, LCC6-MDR; conditions: LCC6-MDR1 variant line overexpressing Pgp vs LCC6-WT
Method: as §1, §2, §3

[7] = tested on: paclitaxel-resistant cells; conditions: cited from earlier work
tubulin = conditions: cited from earlier work
[8] = Experiment 1, TX-001/TX-002 from 4.0 mM stocks
[9] = Experiment 2, TX-001/TX-002 from 0.4 mM stocks

## 2′-Succinamidyl-PEG2-amine-paclitaxel Acetate [Compound 4]
[1]; [8]
  IC50: 13 ± 0.5 nM
[1]; [9]
  IC50: 37 ± 1.2 nM
[2]; [8]
  IC50: 4.5 ± 0.4 nM
[2]; [9]
  IC50: 19 ± 0.7 nM
[3]; 4.0 mM stock solutions stored at 4° C. for 7 days
  IC50: 2.7 ± 0.4 nM
[3]; Experiment 1, TX-001/TX-002 from 4.0 mM stocks, 72-96 h
  IC50: 4.9 ± 0.5 nM
[3]; Experiment 2, TX-001/TX-002 from 0.4 mM stocks, 72-96 h
  IC50: 13 ± 0.5 nM
[4]; [8]
  IC50: 8.9 ± 0.4 nM
[4]; [9]
  IC50: 36 ± 1.5 nM

## 2′-Succinamidyl-PEG2-amine-paclitaxel Trifluoroacetate [Compound 3]
[5]
  average purity after storage: 97.4%

## CC(=O)O.CC(=O)OC1C(=O)C2(C)C(O)CC3OCC3(OC(C)=O)C2C(OC(=O)c2ccccc2)C2(O)CC(OC(=O)C(OC(=O)CCCC(=O)NCCOCCOCCN)C(NC(=O)c3ccccc3)c3ccccc3)C(C)=C1C2(C)C (stereo not shown) [Compound 5, 2′-Glutaramidyl-PEG2-amine-paclitaxel acetate]
[6]
  Resistance ratio (IC50 resistant cell line/IC50 parental line): 47-60 fold
[4]
  Resistance ratio (IC50 resistant cell line/IC50 parental line): 1.1-1.5 fold

## CC(=O)O[C@@]12CO[C@@H]1C[C@H](O)[C@@]1(C)C(=O)[C@H](O)C3=C(C)[C@@H](OC(=O)[C@H](O)[C@@H](NC(=O)OC(C)(C)C)c4ccccc4)C[C@@](O)([C@@H](OC(=O)c4ccccc4)[C@H]21)C3(C)C [Docetaxel, docetaxel]
[7]
  activity relative to paclitaxel: about five times as active as paclitaxel

## CC(=O)O[C@H]1C(=O)[C@@]2(C)[C@H]([C@H](OC(=O)c3ccccc3)[C@]3(O)C[C@H](OC(=O)[C@H](O)[C@@H](NC(=O)c4ccccc4)c4ccccc4)C(C)=C1C3(C)C)[C@]1(OC(C)=O)CO[C@@H]1C[C@@H]2O [Paclitaxel, reference compound]
[6]
  Resistance ratio (IC50 resistant cell line/IC50 parental line): 65-92 fold
[4]
  Resistance ratio (IC50 resistant cell line/IC50 parental line): 1.1-1.4 fold

## A-nor-paclitaxel
tubulin
  tubulin-assembly activity relative to paclitaxel: only three times less than that of paclitaxel
